Measured values from the NIST ThermoML archive (doi:10.1021/je400473z).
Numbers after ± are expanded uncertainties.

Assay: wn = mass fraction of the nth substance listed
Details: 101 kPa, Liquid, Vibrating tube method

`CC#N` [acetonitrile] + O gave a mass density (293.15 K, w1 = 0.1) of 983.2 ± 2 kg/m3, a mass density (293.15 K, w1 = 0.2) of 964.2 ± 2 kg/m3 and a mass density (293.15 K, w1 = 0.4) of 918.7 ± 2 kg/m3. For the same molecule, the mass density (303.15 K, w1 = 0.1) was 978.7 ± 2 kg/m3, the mass density (303.15 K, w1 = 0.2) was 958.2 ± 2 kg/m3 and the mass density (303.15 K, w1 = 0.4) was 910.9 ± 2 kg/m3. It also gave a mass density (313.15 K, w1 = 0.1) of 973.5 ± 2 kg/m3, a mass density (313.15 K, w1 = 0.2) of 951.6 ± 2 kg/m3 and a mass density (313.15 K, w1 = 0.4) of 902.8 ± 2 kg/m3.
